# Measurements as given in a melting point compilation (Tetko et al.; mined from patent text by program, amines drawn as free bases though some values may be those of a salt).
row,melting point,SMILES
1,> 205 °C,O=C(O)c1c[nH]c(Br)c1-c1ccc(Cl)cc1
2,172 to 174 °C,CCCn1c(=O)c2[nH]c(C34CC5CC3CC(C4)C5=O)nc2n(CCC)c1=O
3,73 to 74 °C,CCOC(=O)c1cnoc1-c1ccc2c(c1)OCO2
4,128 to 132 °C,O=C(OCc1cc(-c2ccc(F)cc2F)ccc1O)c1cc(O)c2c(c1)C(=O)c1cccc(O)c1C2=O
5,47 to 49 °C,CCOC(=O)C(C=C(C)CP(=O)(OCCCl)OCCCl)NC=O (stereo not drawn)
6,44 to 46 °C,COc1cc2c(cc1OCc1ccccc1)CCCN(Cc1cc(OC)c(OC)c(OC)c1)C2
7,160 to 161 °C,CCOC(=O)Cc1nn(Cc2nc3cc(Br)ccc3s2)c(=O)c2ccccc12
8,206 to 208 °C,NS(=O)(=O)c1ccc(N2CCN(CC[C@@H]3OCCc4cc(Br)ccc43)CC2)c(Br)c1
9,114 to 116 °C,CCn1c(C)nc2cc(C(F)(F)F)c(Cl)c([N+](=O)[O-])c21
10,70 to 79 °C,COC(=O)c1ccc(OCCNC(=O)C2Cc3ccccc3N2S(=O)(=O)c2ccc(-c3ccc(F)cc3)cc2)cc1Cl (stereo not drawn)
11,157 to 158 °C,CCCCc1csc2ccc3[nH]c4c(c3c12)CN(C(C)C)CC4
12,239 to 241 °C,CC1NC(=O)C2=C1c1ccc(Cl)cc1C(c1ccccc1Cl)=NC2 (stereo not drawn)
13,191 to 193 °C,O=C(O)c1cc(=O)c2c(OCC(O)COc3ccc(Cl)cc3)cccc2o1 (stereo not drawn)
14,119 to 120 °C,COC[C@@H](C)n1cc(Cl)nc(N2CCc3cc(Br)cc(Br)c32)c1=O
15,95 to 98 °C,O=[N+]([O-])c1ccccc1Nc1cccc(Nc2ccc(C(F)(F)F)cc2[N+](=O)[O-])c1
16,260 to 261 °C,Cn1c(=O)cc(-c2cccc(O)c2)c2cccnc21
17,98 °C,CON1C(=O)CC2(CCN(C(=O)OCc3ccccc3)CC2)C1=O
18,181 to 183 °C,COc1ccc(NC(=S)N2CCc3cc(S(=O)(=O)N4CC(c5ccccc5)NC4=O)ccc32)cc1 (stereo not drawn)
19,67 to 68 °C,COc1ccc(-c2cccs2)cc1OC1CCCC1
20,104 °C,O=C(O)CC1(CC(O)=NO)CCCCC1
21,220 °C,Cn1c2nc3ccccc3nc2c2cccc(C=O)c21
22,278 to 280 °C,CS(=O)(=O)c1ccc(-n2nc(C(F)(F)F)cc2-c2nc3cc(F)ccc3[nH]2)cc1
23,162 to 164 °C,O=c1oc(-c2ccccc2)nc2cccc(F)c12
24,116 to 120 °C,"CN1C(=O)CCC2(C)c3ccc(-c4cccc(F)c4)cc3CCC12 (single isomer, unassigned; (+))"

row,melting point,SMILES
1,129 to 130 °C,Cc1cc(C)c(C)c(OCC(=O)O)c1
2,40 to 41 °C,CC(OC(=O)N(C(C)C)C(C)C)c1ccccc1[N+](=O)[O-] (stereo not drawn)
3,> 230 °C,CSc1nn2c(N)cc(C)nc2c1S(=O)(=O)c1ccc(C(C)(C)C)cc1
4,183 to 185 °C,CC(=O)N1CCc2cc(N)ccc21
5,115 to 117 °C,COC(=O)c1cccc(Cn2ccc(OCc3ccc(F)cc3F)c(Br)c2=O)c1
6,147 °C,CC1(C)CC(OC(=O)c2ccccc2)CC(C)(C)N1CC#N
7,295 to 297 °C,O=C(NCc1ccc(Cl)cc1)c1cnc2c(Cl)c(Cl)ccc2c1O
8,178 to 180 °C,CC1(C)C(=O)N(c2ccc(C#N)c(C(F)(F)F)c2)C(=O)N1CC1CC1CN1C(=O)N(c2ccc(C#N)c(C(F)(F)F)c2)C(=O)C1(C)C (stereo not drawn)
9,138 to 140 °C,CC(C)(c1ccc(Oc2cccc(N)c2)cc1)c1ccc(C(C)(C)c2ccc(Oc3cccc(N)c3)cc2)cc1
10,168 to 169 °C,CS(=O)(=O)c1ccc(-c2c(C(=O)O)c3cccccc-3c2-c2ccccc2)cc1
11,38 to 40 °C,CCCCCCCCCCCCON(Cc1ccccc1)C(c1ccccc1)P(=O)(OCCCCCCCCCCCC)OCCCCCCCCCCCC (stereo not drawn)
12,> 250 °C,COCCOc1ccc(N)cc1S(=O)(=O)O
13,124 to 125 °C,CCCN1C(=O)C2(CC)CC(c3ccc(N)cc3)(C2)C1=O
14,64 to 66 °C,CCN(C(=O)C(C)CSC(c1ccccc1)(c1ccccc1)c1ccccc1)c1cn(-c2cccnc2)nc1Cl (stereo not drawn)
15,250 °C,CCn1c(N)c(C(=O)NC)c(=O)c2cnc(-c3ccc(NC(=O)NCc4cccnc4)cc3)nc21
16,136 to 137 °C,CO[C@H]1O[C@@H](C)[C@H]2[C@@H]1C[C@H]1CCCC[C@@H]1[C@H]2CS(=O)(=O)c1ccccc1
17,150 to 152 °C,Cn1nnc(-c2cc(-c3ccc(F)cc3)sc2-c2ccc(F)cc2)n1
18,177 to 179 °C,CCn1nc(-c2ccc(F)cc2)c(-c2ccc(S(C)(=O)=O)cc2)cc1=O
19,118 to 120 °C,COc1ccc(-n2nc(N3CCN(C#N)CC3)c3ccccc32)cc1
20,188 to 190 °C,CC(=O)NC[C@H]1CN(c2ccc(N3CCC4(CC3)CC4(C#N)C#N)c(F)c2)C(=O)O1
21,110 to 112 °C,CCOC(=O)C1=C(NC(=O)Nc2ccc(Cl)c(C(=O)OCC)c2)CCC1
22,93 to 95 °C,Nc1ccc(SC2=CCCCC2)cc1[N+](=O)[O-]
23,78 to 79 °C,Cc1nc(C(=O)NCCO[N+](=O)[O-])cs1
24,123 to 125 °C,CCOC(=O)CC(O)CC(O)C=Cc1c(C(C)C)sc(-c2ccccc2)c1-c1ccc(F)cc1 (stereo not drawn)

row,melting point,SMILES
1,157 to 159 °C,O=c1ccc2nc3ccccc3sc-2c1
2,124 to 126 °C,CON=C(C(=O)NN)c1ccccc1COc1cc(C)ccc1C
3,87 to 89 °C,Cc1ccccc1Nc1nc(Cl)c2sccc2n1
4,161 to 163 °C,C=CCN(CC=C)c1nc(NC(=O)OCC(C)C)n2oc(=O)nc2n1
5,117 to 120 °C,Cc1nn(-c2ccccn2)c2nc3ccccc3c(OCC(C)C)c12
6,183 to 184 °C,COc1cc(N(C)C)nc(NC(=O)NS(=O)(=O)c2ccccc2CCC(F)(F)F)n1
7,148 to 150 °C,COc1cnc(NCCCOc2cccc(CN3CCCCC3)c2)[nH]c1=O
8,101 to 104 °C,COC1(C)OC(=O)c2c(O)cccc21 (stereo not drawn)
9,158 to 160 °C,Cc1ccc(-n2nc(C(F)(F)F)cc2-c2ccc(S(C)(=O)=O)cc2)cc1F
10,189 to 191 °C,COC(=O)c1ncn2c1c(OC)nc1ccccc12
11,166 to 167 °C,CCCN1C(=O)c2cscc2Nc2ccccc21
12,69 to 71 °C,C[C@@H]1C(=O)N(CC(=O)CCc2ccccc2)[C@H]1SCc1ccccc1 (relative stereo)
13,111 to 112 °C,c1ccc(OCCSCc2nnc(-c3ccc(OCc4cccnc4)cc3)o2)cc1
14,95 °C,Cc1ccc2onc(-c3ccc(Cl)cc3)c2c1
15,206 to 208 °C,CN(C)S(=O)(=O)n1c(N)nc2ccc(C(N)=O)cc21
16,98 °C,COC(=O)c1cc(-c2ccc(Cl)c(C)c2)n(Cc2ccc(C)cc2)n1
17,114 to 115 °C,COc1ccc(C2=NN(C3CCCCCC3)C(=O)[C@H]3CC=CC[C@@H]23)c2c1OC(C)(C)C2 (relative stereo)
18,129 to 130 °C,COc1ccc(C2C=C3CN(C)CCC3C3C(=O)N(C)C(=O)C23)cc1 (stereo not drawn)
19,184 °C,COc1ccc(C(=O)Nc2cc(NC(=O)c3cccc(N(C)C)c3)ccc2Br)cc1OC
20,219 to 221 °C,O=C(CCCc1ccccc1)NCC(=O)N1c2ccccc2N(Cc2ccccc2)C(=O)[C@H]2CCC[C@H]21 (relative stereo)
21,> 300 °C,CCCn1cc2c(C3C(=O)Nc4ccc(C#N)cc43)nc(Cl)nc2n1 (stereo not drawn)
22,192 to 194 °C,CC(=O)NC[C@H]1CN(c2ccc(N3CCC(=C(C#N)CCO)CC3)c(F)c2)C(=O)O1
23,255 to 257 °C,CCOc1cc2nc[nH]c(=O)c2cc1OCC
24,160 to 163 °C,CC(CCNC1=Nc2cccc3cccc1c23)c1cccnc1 (stereo not drawn)

row,melting point,SMILES
1,90 to 91 °C,CCOc1ccc(C2(C(=O)O)CCC2)cc1
2,109 to 110 °C,CON(C)C(=O)/C=C/C(=C(c1ccc(F)cc1)c1ccc(F)cc1)C(C)C
3,157 °C,CC(=O)N[C@H]1CC[C@H](CCN2CCN(c3nccc4ccoc34)CC2)CC1
4,178 to 180 °C,CC(C)(NCCCn1ccnc1)c1ccc(-c2ccc(O)cc2)cc1
5,> 230 °C,COCc1cc(N)n2nc(SC)c(S(=O)(=O)c3ccccc3)c2n1
6,66 °C,CC(C)Oc1ccc(OC(C)C)c(OCCN2C(=O)c3ccccc3C2=O)c1
7,181 to 182 °C,N[C@H](C1CCCCC1)C(O)(c1ccccc1)c1ccccc1
8,99 to 101 °C,Clc1nc(Cl)nc(NC2CC2)n1
9,104 to 110 °C,NC(=S)NN=C(CNC(=O)C1CCCCC1)c1ccccc1
10,140 to 145 °C,C=Cc1ccc2[nH]cc(S(=O)(=O)c3ccccc3)c2c1
11,224 to 226 °C,O=C1c2cccc3c(N4CCCC4)c(F)cc(c23)C(=O)N1O
12,206 to 208 °C,Cc1nc(NC(=O)NC(=O)c2c(F)cccc2F)ccc1-c1ccccc1
13,163 to 165 °C,CCCCc1nc2ccc(N(C)C(=O)NC)cc2n1Cc1ccc(-c2ccccc2C(=O)O)cc1
14,113 to 115 °C,COc1ccc(/C(=C/C=C/C(=O)Oc2ccc([N+](=O)[O-])cc2)c2ccccc2)cc1
15,217 to 219 °C,COc1c(CC#N)c2c(c3c1OC(C)(C)C3)C(c1cccc(C(=O)NC(C)(C)C(N)=O)c1)=NC(C)(C)C2
16,133 to 135 °C,CC(=NOCCO)c1cn(C)c(-c2ccccc2)n1
17,155 to 158 °C,COc1ccc(C(=O)c2cc3cc(OC)ccc3[nH]2)cc1
18,75 to 76 °C,COC(=O)/C=C/C=C(\c1ccc(OC)cc1)c1cccnc1
19,155 °C,Oc1cc(-c2ccco2)c2oc(-c3ccc(O)c(F)c3)nc2c1
20,168 to 169 °C,Cc1nnc(-c2ccc3occ(-c4ccc(S(C)=O)c(F)c4)c3c2)o1 (stereo not drawn)
21,185 to 186 °C,CC1Cc2cc(O)ccc2C2C(F)CC3(C)C(=O)CCC3C12 (stereo not drawn)
22,175 to 179 °C,CC(=O)OCC1OC(n2cc(I)c(=O)[nH]c2=O)C(OC(C)=O)C1OC(C)=O (stereo not drawn)
23,131 to 132 °C,Cc1cc(-c2ccccc2)nn1CCN

row,SMILES,melting point
1,Cc1cc(O)c2c(c1)C(C)(C)CC2(C)C,66 °C
2,CN(C)CCc1nnc2n1-c1ccc(Cl)cc1C(c1ccccc1Cl)=NC2,150 to 153 °C
3,N#CC1(c2ccccc2Oc2ccc(Cl)cc2)CCNCC1,128 to 130 °C
